Assays:
Type in all cases: functional
MDA-MB-468 [1] = assay: Growth inhibition of human MDA-MB-468 cells assessed as cell growth at 1 uM incubated for 48 hrs by sulforhodamine B assay relative to control; conditions: read-out: Activity
NCI-H322M = assay: Growth inhibition of human NCI-H322M cells assessed as cell growth at 0.1 uM incubated for 48 hrs by sulforhodamine B assay relative to control; conditions: read-out: Activity
Malme-3M [2] = assay: Growth inhibition of human Malme-3M cells incubated for 48 hrs by sulforhodamine B assay
OVCAR-8 = assay: Growth inhibition of human OVCAR-8 cells incubated for 48 hrs by sulforhodamine B assay
PC-3 = assay: Growth inhibition of human PC-3 cells assessed as cell growth at 0.01 uM incubated for 48 hrs by sulforhodamine B assay relative to control; conditions: read-out: Activity
A549 = assay: Growth inhibition of human A549/ATCC cells assessed as cell growth at 100 uM incubated for 48 hrs by sulforhodamine B assay relative to control; conditions: read-out: Activity
COLO 205 [3] = assay: Growth inhibition of human COLO 205 cells assessed as cell growth at 0.1 uM incubated for 48 hrs by sulforhodamine B assay relative to control; conditions: read-out: Activity
NCI-H522 [4] = assay: Growth inhibition of human NCI-H522 cells assessed as cell growth at 1 uM incubated for 48 hrs by sulforhodamine B assay relative to control; conditions: read-out: Activity
EKVX = assay: Growth inhibition of human EKVX cells incubated for 48 hrs by sulforhodamine B assay
OVCAR-4 [5] = assay: Growth inhibition of human OVCAR-4 cells assessed as cell growth at 1 uM incubated for 48 hrs by sulforhodamine B assay relative to control; conditions: read-out: Activity
MDA-MB-435 = assay: Growth inhibition of human MDA-MB-435 cells assessed as cell growth at 100 uM incubated for 48 hrs by sulforhodamine B assay relative to control; conditions: read-out: Activity
UACC-257 = assay: Growth inhibition of human UACC-257 cells assessed as cell growth at 1 uM incubated for 48 hrs by sulforhodamine B assay relative to control; conditions: read-out: Activity
MDA-MB-468 [6] = assay: Growth inhibition of human MDA-MB-468 cells assessed as cell growth at 0.1 uM incubated for 48 hrs by sulforhodamine B assay relative to control; conditions: read-out: Activity
NCI-H522 [7] = assay: Growth inhibition of human NCI-H522 cells assessed as cell growth at 100 uM incubated for 48 hrs by sulforhodamine B assay relative to control; conditions: read-out: Activity
HT-29 = assay: Growth inhibition of human HT-29 cells incubated for 48 hrs by sulforhodamine B assay
T47D = assay: Growth inhibition of human T47D cells assessed as cell growth at 0.01 uM incubated for 48 hrs by sulforhodamine B assay relative to control; conditions: read-out: Activity
LOX IMVI = assay: Growth inhibition of human LOX IMVI cells incubated for 48 hrs by sulforhodamine B assay
OVCAR-4 [8] = assay: Growth inhibition of human OVCAR-4 cells assessed as cell growth at 0.01 uM incubated for 48 hrs by sulforhodamine B assay relative to control; conditions: read-out: Activity
COLO 205 [9] = assay: Growth inhibition of human COLO 205 cells assessed as cell growth at 100 uM incubated for 48 hrs by sulforhodamine B assay relative to control; conditions: read-out: Activity
CCRF-CEM = assay: Growth inhibition of human CCRF-CEM cells assessed as cell growth at 0.1 uM incubated for 48 hrs by sulforhodamine B assay relative to control; conditions: read-out: Activity
HCT-15 = assay: Growth inhibition of human HCT-15 cells incubated for 48 hrs by sulforhodamine B assay
A498 = assay: Growth inhibition of human A498 cells incubated for 48 hrs by sulforhodamine B assay
UO-31 = assay: Growth inhibition of human UO-31 cells assessed as cell growth at 0.01 uM incubated for 48 hrs by sulforhodamine B assay relative to control; conditions: read-out: Activity
SK-MEL-28 = assay: Growth inhibition of human SK-MEL-28 cells assessed as cell growth at 100 uM incubated for 48 hrs by sulforhodamine B assay relative to control; conditions: read-out: Activity
DU-145 = assay: Growth inhibition of human DU-145 cells assessed as cell growth at 0.01 uM incubated for 48 hrs by sulforhodamine B assay relative to control; conditions: read-out: Activity
SNB-75 = assay: Growth inhibition of human SNB-75 cells incubated for 48 hrs by sulforhodamine B assay
Malme-3M [10] = assay: Growth inhibition of human Malme-3M cells assessed as cell growth at 100 uM incubated for 48 hrs by sulforhodamine B assay relative to control; conditions: read-out: Activity
U-251 [11] = assay: Growth inhibition of human U-251 cells incubated for 48 hrs by sulforhodamine B assay
CAKI-1 = assay: Growth inhibition of human CAKI-1 cells assessed as cell growth at 0.01 uM incubated for 48 hrs by sulforhodamine B assay relative to control; conditions: read-out: Activity
SR = assay: Growth inhibition of human SR cells assessed as cell growth at 100 uM incubated for 48 hrs by sulforhodamine B assay relative to control; conditions: read-out: Activity
786-0 = assay: Growth inhibition of human 786-0 cells assessed as cell growth at 100 uM incubated for 48 hrs by sulforhodamine B assay relative to control; conditions: read-out: Activity
U-251 [12] = assay: Growth inhibition of human U-251 cells assessed as cell growth at 0.01 uM incubated for 48 hrs by sulforhodamine B assay relative to control; conditions: read-out: Activity
TK-10 = assay: Growth inhibition of human TK-10 cells assessed as cell growth at 0.01 uM incubated for 48 hrs by sulforhodamine B assay relative to control; conditions: read-out: Activity
[13] = read-out: LC50 (the source's name)
[14] = read-out: pLC50 (the source's name) (converted)

## CC(=O)Nc1cc(CO[Si](C)(C)C(C)(C)C)cc(NC(=O)c2ccc(C(=O)Nc3cccc(NC(=O)CCCN(C)C)c3)cc2)c1
MDA-MB-468 [1]
  growth at 1 µM: 90%
NCI-H322M
  growth at 0.1 µM: 95%
Malme-3M [2]; read-out: GI50
  GI50: 36.3 µM
Malme-3M [2]; read-out: LC50
  LC50 (concentration killing 50% of cells): > 75 µM
Malme-3M [2]; read-out: TGI
  TGI: > 75 µM
Malme-3M [2]; read-out: pGI50 (converted)
  GI50: 36.3 µM
Malme-3M [2]; read-out: pLC50 (converted)
  LC50 (concentration killing 50% of cells): > 75.9 µM
Malme-3M [2]; read-out: pTGI
  TGI: > 75.9 µM
OVCAR-8; read-out: GI50
  GI50: > 75 µM
OVCAR-8; [13]
  CC50: > 75 µM
OVCAR-8; read-out: TGI
  TGI: > 75 µM
OVCAR-8; read-out: pGI50 (converted)
  GI50: > 75.9 µM
OVCAR-8; [14]
  CC50: > 75.9 µM
OVCAR-8; read-out: pTGI
  TGI: > 75.9 µM
PC-3
  growth at 0.01 µM: 100%
A549
  growth at 100 µM: 98%
COLO 205 [3]
  growth at 0.1 µM: 100%
NCI-H522 [4]
  growth at 1 µM: 86%
EKVX; read-out: GI50
  GI50: > 75 µM
EKVX; read-out: LC50
  LC50: > 75 µM
EKVX; read-out: TGI
  TGI: > 75 µM
EKVX; read-out: pGI50 (converted)
  GI50: > 75.9 µM
EKVX; read-out: pLC50 (converted)
  LC50: > 75.9 µM
EKVX; read-out: pTGI
  TGI: > 75.9 µM
OVCAR-4 [5]
  growth at 1 µM: 100%
MDA-MB-435
  growth at 100 µM: 88%
UACC-257
  growth at 1 µM: 89%
MDA-MB-468 [6]
  growth at 0.1 µM: 93%
NCI-H522 [7]
  growth at 100 µM: 86%
HT-29; read-out: GI50
  GI50: > 75 µM
HT-29; [13]
  CC50: > 75 µM
HT-29; read-out: TGI
  TGI: > 75 µM
HT-29; read-out: pGI50 (converted)
  GI50: > 75.9 µM
HT-29; [14]
  CC50: > 75.9 µM
HT-29; read-out: pTGI
  TGI: > 75.9 µM
T47D
  growth at 0.01 µM: 99%
LOX IMVI; read-out: GI50
  GI50: > 75 µM
LOX IMVI; read-out: LC50
  LC50 (concentration giving 50% cell kill): > 75 µM
LOX IMVI; read-out: TGI
  TGI: > 75 µM
LOX IMVI; read-out: pGI50 (converted)
  GI50: > 75.9 µM
LOX IMVI; read-out: pLC50 (converted)
  LC50 (concentration giving 50% cell kill): > 75.9 µM
LOX IMVI; read-out: pTGI
  TGI: > 75.9 µM
OVCAR-4 [8]
  growth at 0.01 µM: 95%
COLO 205 [9]
  growth at 100 µM: 80%
CCRF-CEM
  growth at 0.1 µM: 98%
HCT-15; read-out: GI50
  GI50: > 75 µM
HCT-15; [13]
  CC50: > 75 µM
HCT-15; read-out: TGI
  TGI: > 75 µM
HCT-15; read-out: pGI50 (converted)
  GI50: > 75.9 µM
HCT-15; [14]
  CC50: > 75.9 µM
HCT-15; read-out: pTGI
  TGI: > 75.9 µM
A498; read-out: LC50
  LC50 (concentration giving 50% net cell kill): > 75 µM
A498; read-out: TGI
  TGI: > 75 µM
A498; read-out: pLC50 (converted)
  LC50 (concentration giving 50% net cell kill): > 75.9 µM
A498; read-out: pTGI
  TGI: > 75.9 µM
UO-31
  growth at 0.01 µM: 83%
SK-MEL-28
  growth at 100 µM: 74%
DU-145
  growth at 0.01 µM: 103%
SNB-75; read-out: GI50
  GI50: > 75 µM
SNB-75; read-out: LC50
  LC50: > 75 µM
SNB-75; read-out: TGI
  TGI: > 75 µM
SNB-75; read-out: pGI50 (converted)
  GI50: > 75.9 µM
SNB-75; read-out: pLC50 (converted)
  LC50: > 75.9 µM
SNB-75; read-out: pTGI
  TGI: > 75.9 µM
Malme-3M [10]
  growth at 100 µM: 33%
U-251 [11]; read-out: GI50
  GI50: > 75 µM
U-251 [11]; [13]
  CC50: > 75 µM
U-251 [11]; read-out: TGI
  TGI: > 75 µM
U-251 [11]; read-out: pGI50 (converted)
  GI50: > 75.9 µM
U-251 [11]; [14]
  CC50: > 75.9 µM
U-251 [11]; read-out: pTGI
  TGI: > 75.9 µM
CAKI-1
  growth at 0.01 µM: 92%
SR
  growth at 100 µM: 116%
786-0
  growth at 100 µM: 88%
U-251 [12]
  growth at 0.01 µM: 101%
TK-10
  growth at 0.01 µM: 96%

Source: ChEMBL document CHEMBL4715697, “Synthesis and biological activity of benzamide DNA minor groove binders” (2016)
